In the NIST ThermoML archive (doi:10.1016/j.jct.2011.12.001):
Where “and” joins values, the source holds several entries; their conditions need not be identical. Equal entries are not always repeated. Numbers after ± are expanded uncertainties.

What was measured:
[1] = molar enthalpy of transition or fusion; details: drop calorimetry
[2] = molar enthalpy of vaporization or sublimation; details: 298.15 K; Liquid; drop calorimetry
[3] = Crystal, Calculated from knudsen effusion weight loss

Structure (SMILES)	molar enthalpy of transition or fusion ([1]; 324.2 K, Liquid) [kcal/mol]	molar enthalpy [2] [kcal/mol]	vapor or sublimation pressure ([3]; 271.17 K)	vapor or sublimation pressure ([3]; 273.17 K)	vapor or sublimation pressure ([3]; 275.13 K)	vapor or sublimation pressure ([3]; 277.16 K)	vapor or sublimation pressure ([3]; 279.06 K)	vapor or sublimation pressure ([3]; 281.16 K)	vapor or sublimation pressure ([3]; 283.17 K)	vapor or sublimation pressure ([3]; 285.14 K)	vapor or sublimation pressure ([3]; 287.14 K)	molar enthalpy of transition or fusion ([1]; 349.4 K, Crystal) [kcal/mol]
COc1ccccc1I [1-iodo-2-methoxybenzene]	16.52 ± 0.0956	15.6 ± 0.669	–	–	–	–	–	–	–	–	–	–
COc1ccc(I)cc1 [1-iodo-4-methoxybenzene]	–	19.7 ± 0.717	0.000123 ± 2e-05 kPa and 0.00012 ± 2e-05 kPa and 0.000116 ± 2e-05 kPa	0.000161 ± 2.1e-05 kPa and 0.000156 ± 2.1e-05 kPa and 0.000153 ± 2.1e-05 kPa	0.000213 ± 2.1e-05 kPa and 0.000211 ± 2.1e-05 kPa and 0.000196 ± 2.1e-05 kPa	0.000267 ± 2.2e-05 kPa and 0.000258 ± 2.2e-05 kPa and 0.000279 ± 2.2e-05 kPa	0.00035 ± 2e-05 kPa and 0.000334 ± 2.3e-05 kPa and 0.000332 ± 2.3e-05 kPa	0.000463 ± 2.6e-05 kPa and 0.000446 ± 2.6e-05 kPa and 0.000429 ± 2.5e-05 kPa	0.000606 ± 2.9e-05 kPa and 0.000571 ± 2.8e-05 kPa and 0.000555 ± 2.8e-05 kPa	0.000749 ± 3.3e-05 kPa and 0.000718 ± 3.2e-05 kPa	0.000979 ± 4e-05 kPa and 0.000924 ± 3.8e-05 kPa and 0.000923 ± 3.8e-05 kPa	21.61 ± 0.143
COc1cccc(I)c1 [3-iodoanisole]	15.85 ± 0.0478	14.9 ± 0.621	–	–	–	–	–	–	–	–	–	–
